Some results are limits rather than exact numbers.

Common to all, as to format: in vivo
In assay [1] the test system is Aphis gossypii. Briefly: Cotton seedling spray test, action against Aphis gossypii. Particulars: 20° C, 3 and 6 days; for control (percentage reduction in population, % action): spray 400 ppm; for control level: plot (b) conventional cotton seedlings, 400 ppm compound, then 400 ppm δ-endotoxin CryIIIa. As for the experimental part: Cotton seedlings on a plot (a) expressing the δ-endotoxin CryIIIa on a plot (a) and conventional cotton seedlings on a plot (b) are infected with Aphis gossypi and subsequently sprayed with a spray mixture comprising 400 ppm thiamethoxam. Immediately afterwards, plot (b) is treated with an emulsion spray mixture comprising 400 ppm of the δ-endotoxin CryIIIa. The seedlings of plot (a) and (b) are then incubated at 20° C. The test is evaluated after 3 and 6 days.
The percentage reduction in population (% action) is determined by comparing the number of dead pests on the plants of plot (a) with that on the plants of plot (b).
Cotton seedlings expressing the δ-endotoxin CryIA(c) on a plot (a) and conventional cotton seedlings on a plot (b) are infected with Aphis gossypii and subsequently sprayed with a spray mixture comprising 400 ppm thiamethoxam. Immediately afterwards, plot (b) is treated with an emulsion spray mixture comprising 400 ppm of the δ-endotoxin CryIIIa. The seedlings of plot (a) and (b) are then incubated at 20° C. The test is evaluated after 3 and 6 days.

Assay [2] concerns Nilaparvata lugens. Description: Rice plant pot test, action against Nilaparvata lugens (systemic). Particulars: 6 days; for control (percentage reduction in population, % action): placed in aqueous emulsion with 400 ppm compound; for control level: pot (B) conventional rice plants. As for the experimental part: Rice plants expressing the δ-endotoxin CryIA(b) are planted in a in pot (A) and conventional rice plants are planted in a pot (B). Pot (A) is placed in an aqueous emulsion containing 400 ppm thiamethoxam, whereas plot (B) is place in a pot containing 400 ppm thiamethoxam and 400 ppm of the δ-endotoxin CryIA(b). The plants are subsequently infected with Nilaparvata lugens larvae of the second and third stage. The test is evaluated after 6 days.
(§1) The percentage reduction in population (% action) is determined by comparing the number of dead pests on the plants of pot (A) with that on the plants of pot (B).
Rice plants expressing the δ-endotoxin CryIA(c) are planted in a in pot (A) and conventional rice plants are planted in a pot (B). Pot (A) is placed in an aqueous emulsion containing 400 ppm thiamethoxam, whereas plot (B) is place in a pot containing 400 ppm thiamethoxam and 400 ppm of the δ-endotoxin CryIA(c). The plants are subsequently infected with Nilaparvata lugens larvae of the second and third stage. The test is evaluated after 6 days.

For assay [3], the system named is Nephotettix cincticeps. Briefly: Rice plant pot test, action against Nephotettix cincticeps (systemic). The note with it: 6 days; for control (percentage reduction in population, % action): placed in aqueous emulsion with 400 ppm compound; for control level: pot (B) conventional rice plants. How it is done: Rice plants expressing the δ-endotoxin CryIa(b) are planted in a in pot (A) and conventional ice plants are planted in a pot (B). Pot (A) is placed in an aqueous emulsion containing 400 ppm thiamethoxam, whereas plot (B) is placed in a pot containing 400 ppm thiamethoxam and 400 ppm of the δ-endotoxin CryI(b). The plants are subsequently infected with Nephotettix cincticeps larvae of the second and third stage. The test is evaluated after 6 days.
as §1
Rice plants expressing the δ-endotoxin CryIa(c) are planted in a in pot (A) and conventional ice plants are planted in a pot (B). Pot (A) is placed in an aqueous emulsion containing 400 ppm thiamethoxam, whereas plot (B) is placed in a pot containing 400 ppm thiamethoxam and 400 ppm of the δ-endotoxin CryI(c). The plants are subsequently infected with Nephotettix cincticeps larvae of the second and third stage. The test is evaluated after 6 days.

Assay [4] concerns Spodoptera spp. Description: Maize plot spray test (KnockOut vs conventional maize), action against Spodoptera spp. The note with it: 6 days. How it is done: (§2) A plot (a) planted with maize cv. KnockOut® and an adjacent plot (b) of the same size which is planted with conventional maize, both showing natural infestation with Ostrinia nubilalis, Spodoptera spp. or Heliothis, are sprayed with an aqueous emulsion spray mixture comprising 200, 100, 50, 10, 5, 1 ppm of Ti-435. Immediately afterwards, plot (b) is treated with an emulsion spray mixture comprising 200, 100, 50, 10, 5, 1 ppm of the endotoxin expressed by KnockOut®. Evaluation takes place 6 days later. The percentage reduction in population (% action) is determined by comparing the number of dead pests on the plants of plot (a) with that on the plants of plot (b).
as §2, with “thiamethoxam.” for “Ti-435.”
as §2, with “imidacloprid.” for “Ti-435.”

Assay [5] deals with Heliothis spp. Briefly: Maize plot spray test (KnockOut vs conventional maize), action against Heliothis spp. The note with it: 6 days. As for the experimental part:
as §2
as §2, with “thiamethoxam.” for “Ti-435.”
as §2, with “imidacloprid.” for “Ti-435.”

Setting [6] is: pot (A) rice plants expressing δ-endotoxin CryIa(b).
The mark [7] stands for this setting: pot (A) rice plants expressing δ-endotoxin CryIa(c).
[8] abbreviates: plot (a) maize cv. KnockOut, spray 200, 100, 50, 10, 5, 1 ppm, natural infestation.
The mark [9] stands for this setting: plot (b) conventional maize, compound 200, 100, 50, 10, 5, 1 ppm, then same ppm of the endotoxin expressed by KnockOut.

On to `CN1COCN(Cc2cnc(Cl)s2)/C1=N\[N+](=O)[O-]` [thiamethoxam, 5-(2-Chlorthiazol-5-ylmethyl)-3-methyl-4-nitroimino-perhydro-1,3,5-oxadiazin], for which the “control (percentage reduction in population, % action)” value in assay [1] (plot (a) cotton seedlings expressing δ-endotoxin CryIIIa), in assay [1] (plot (a) cotton seedlings expressing δ-endotoxin CryIa(c)), in assay [2] (setting [6]), in assay [2] (setting [7]), in assay [3] (setting [6]) and in assay [3] (setting [7]) was “Improved control” in each case. Further, the “control (percentage reduction in population, % action)” value in assay [4] (setting [8]) and in assay [5] (setting [8]) was “Improved control” throughout. Moreover, the control level in assay [1] is ≤ 60%; in assay [1] (comparison arm for CryIA(c) cotton) it was ≤ 60%; in assay [2] (400 ppm compound and 400 ppm δ-endotoxin CryIA(b)), ≤ 60%; in assay [2] (400 ppm compound and 400 ppm δ-endotoxin CryIA(c)), ≤ 60%; in assay [3] (400 ppm compound and 400 ppm δ-endotoxin CryI(b)) it was ≤ 60%; in assay [3] (400 ppm compound and 400 ppm δ-endotoxin CryI(c)), ≤ 60%. In addition, the control level in assay [4] (setting [9]) and in assay [5] (setting [9]) was ≤ 60% each time.

The values are drawn from patent US8399378B2, “Use of neonicotinoids in pest control” (Syngenta Crop Protection LLC, priority 1998, dated 2013).
